Assay results from paper PMC8979220 (RSC Advances, 2022).
Converted amounts (≈) assume the structure as drawn.

Each compound was assayed against acetylcholinesterase (acetyl cholinesterase) (assay: in vitro AChE inhibition assay).
Type: biochemical, Electrophorus electricus

Question: For `O=C1C(=O)N(CCOc2ccccc2)c2ccc(Br)cc21` [PI9, 5-Bromo-1-(2-phenoxyethyl)indoline-2,3-dione], which “IC50 (μg ml^-1) ± SEM” value is on record?
Answer: Its value is 0.91 ± 0.083 µg/mL (≈ 2.63 µM).

Question: Which “IC50 (μg ml^-1) ± SEM” value does the source give for `O=C1C(=O)N(CCOc2ccc(Cl)cc2)c2ccc(Br)cc21` [PI10, 5-Bromo-1-(2-(4-chlorophenoxy)ethyl)indoline-2,3-dione] here?
Answer: Its value is 0.98 ± 0.055 µg/mL (≈ 2.57 µM).

Question: How did the “IC50 (μg ml^-1) ± SEM” value turn out when `O=C1C(=O)N(CCOc2ccc(F)cc2)c2ccc(Br)cc21` [PI12, 5-Bromo-1-(2-(4-fluorophenoxy)ethyl)indoline-2,3-dione] was run?
Answer: The value was 1.31 ± 0.083 µg/mL (≈ 3.6 µM).

Question: `O=C1C(=O)N(CCOc2ccc(Cl)cc2)c2ccc(Cl)cc21` [PI6, 5-Chloro-1-(2-(4-chlorophenoxy)ethyl)indoline-2,3-dione] was tested. Which “IC50 (μg ml^-1) ± SEM” value did it give?
Answer: The value was 0.91 ± 0.015 µg/mL (≈ 2.71 µM).

Question: Which “IC50 (μg ml^-1) ± SEM” value does the source give for `O=C1C(=O)N(CCOc2ccc(Cl)cc2)c2ccccc21` [PI2, 1-(2-(4-Chlorophenoxy)ethyl)indoline-2,3-dione] here?
Answer: Its value is 0.72 ± 0.012 µg/mL (≈ 2.39 µM).

Question: With `O=C1C(=O)N(CCOc2ccccc2)c2ccccc21` [PI1, 1-(2-Phenoxyethyl)indoline-2,3-dione] as the compound, how does the “IC50 (μg ml^-1) ± SEM” value read?
Answer: Its value is 0.52 ± 0.073 µg/mL (≈ 1.95 µM).

Question: How did the “IC50 (μg ml^-1) ± SEM” value turn out when `O=C1C(=O)N(CCOc2ccc(F)cc2)c2ccccc21` [PI4, 1-(2-(4-Fluorophenoxy)ethyl)indoline-2,3-dione] was run?
Answer: The value was 0.68 ± 0.011 µg/mL (≈ 2.38 µM).

Question: With `O=C1C(=O)N(CCOc2ccc(Br)cc2)c2ccc(Br)cc21` [PI11, 5-Bromo-1-(2-(4-bromophenoxy)ethyl)indoline-2,3-dione] as the compound, how does the “IC50 (μg ml^-1) ± SEM” value read?
Answer: Its value is 1.14 ± 0.013 µg/mL (≈ 2.68 µM).
